Source: ChEMBL document CHEMBL1909046, “DrugMatrix in vitro pharmacology data”

Key:
[1] = DRUGMATRIX: Nicotinic Acetylcholine radioligand binding (ligand: [125I] Epibatidine); assay type: cell membranes, Membrane; conditions: imr-32; Not Active = under 50% inhibition at 10 µM
[2] = DRUGMATRIX: Atrial Natriuretic Factor (ANF) radioligand binding (ligand: [125I] ANF (rat)); assay type: cell membranes, Cavia porcellus, Dunkin-Hartley, Adrenal gland, Membrane; conditions: Not Active = under 50% inhibition at 10 µM
[3] = target: T1, Adenosine receptor A3 (Homo sapiens, UniProt P0DMS8); assay type: cell membranes, CHO-K1, Membrane;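 also: radioligand binding assay with AB-MECA serving as the labeled ligand; in other assays of this panel Not Active means under 50% inhibition at 10 µM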
T1 sequence (P0DMS8 whole entry): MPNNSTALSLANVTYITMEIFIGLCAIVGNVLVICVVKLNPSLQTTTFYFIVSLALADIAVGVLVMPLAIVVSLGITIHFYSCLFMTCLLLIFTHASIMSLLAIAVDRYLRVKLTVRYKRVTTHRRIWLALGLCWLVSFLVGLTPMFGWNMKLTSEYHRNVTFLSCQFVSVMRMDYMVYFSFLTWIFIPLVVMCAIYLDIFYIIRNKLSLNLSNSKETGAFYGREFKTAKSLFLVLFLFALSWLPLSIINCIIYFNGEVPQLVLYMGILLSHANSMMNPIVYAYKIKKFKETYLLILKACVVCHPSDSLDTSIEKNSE

Row | SMILES | IC50 [1] | Ki [1] | IC50 [2] | Ki [2] | IC50 ([3]; cho-k1) | IC50 ([3]; read-out: IC50) [nM] | Ki ([3]; read-out: Ki) [nM]
1 | O=C/C=C/c1ccccc1 | Not Active | Not Active | Not Active | Not Active | Not Active |  | 
2 | COc1ccc(C(=O)N2CCCC2=O)cc1 | Not Active | Not Active | Not Active | Not Active | Not Active |  | 
3 | CC[C@H](C)[C@H]1O[C@]2(C=C[C@@H]1C)C[C@@H]1C[C@@H](C/C=C(\C)[C@@H](O[C@H]3C[C@H](OC)[C@@H](O[C@H]4C[C@H](OC)[C@@H](O)[C@H](C)O4)[C@H](C)O3)[C@@H](C)/C=C/C=C3\CO[C@@H]4[C@H](O)C(C)=C[C@@H](C(=O)O1)[C@]34O)O2.CO[C@H]1C[C@H](O[C@H]2[C@H](C)O[C@@H](O[C@@H]3/C(C)=C/C[C@@H]4C[C@@H](C[C@]5(C=C[C@H](C)[C@@H](C(C)C)O5)O4)OC(=O)[C@@H]4C=C(C)[C@@H](O)[C@H]5OC/C(=C\C=C\[C@@H]3C)[C@]54O)C[C@@H]2OC)O[C@@H](C)[C@@H]1O [ABAMECTIN] | Not Active | Not Active | Not Active | Not Active |  | 870 | 492
4 | NCCCC(O)(P(=O)(O)O)P(=O)(O)O [ALENDRONIC ACID] | Not Active | Not Active | Not Active | Not Active | Not Active |  | 
5 | Cc1nnc2n1-c1ccc(Cl)cc1C(c1ccccc1)=NC2 [ALPRAZOLAM] | Not Active | Not Active | Not Active | Not Active | Not Active |  | 
6 | Cn1c(=O)c2[nH]cnc2n(C)c1=O.Cn1c(=O)c2[nH]cnc2n(C)c1=O.NCCN [AMINOPHYLLINE] | Not Active | Not Active | Not Active | Not Active | Not Active |  | 
7 | CC1(C)S[C@@H]2[C@H](NC(=O)[C@H](N)c3ccccc3)C(=O)N2[C@H]1C(=O)O [AMPICILLIN] | Not Active | Not Active | Not Active | Not Active | Not Active |  | 
8 | COc1ccc(C2C(=O)c3ccccc3C2=O)cc1 [ANISINDIONE] | Not Active | Not Active | Not Active | Not Active | Not Active |  | 
9 | O=C1O[C@H]([C@@H](O)CO)C(O)=C1O [ASCORBIC ACID] | Not Active | Not Active | Not Active | Not Active | Not Active |  | 
10 | CN1[C@@H]2CC[C@H]1C[C@@H](OC(=O)C(CO)c1ccccc1)C2 (stereo partly specified) [ATROPINE] | Not Active | Not Active | Not Active | Not Active | Not Active |  | 
11 | O=C(O)CCNC(=O)c1ccccc1 [BETAMIPRON] | Not Active | Not Active | Not Active | Not Active | Not Active |  | 
12 | Brc1c(NC2=NCCN2)ccc2nccnc12 [BRIMONIDINE] | Not Active | Not Active | Not Active | Not Active | Not Active |  | 
13 | CN/C(=N\CCSCc1nc[nH]c1C)NC#N [CIMETIDINE] | Not Active | Not Active | Not Active | Not Active | Not Active |  | 
14 | COc1cc(N)c(Cl)cc1C(=O)NC1CCN(CCCOc2ccc(F)cc2)CC1OC (stereo unspecified) [CISAPRIDE] | Not Active | Not Active | Not Active | Not Active | Not Active |  | 
15 | Nc1ccn([C@@H]2O[C@H](CO)[C@@H](O)[C@@H]2O)c(=O)n1 [CYTARABINE] | Not Active | Not Active | Not Active | Not Active | Not Active |  | 
16 | C[C@@H]1C[C@H]2[C@@H]3CCC4=CC(=O)C=C[C@]4(C)[C@@]3(F)[C@@H](O)C[C@]2(C)[C@@]1(O)C(=O)CO [DEXAMETHASONE] | Not Active | Not Active | Not Active | Not Active | Not Active |  | 

Row | SMILES | IC50 [1] | Ki [1] | IC50 [2] | Ki [2] | IC50 ([3]; cho-k1) | IC50 ([3]; read-out: IC50) [nM] | Ki ([3]; read-out: Ki) [nM]
17 | CN(C)CC[C@@H](c1ccc(Cl)cc1)c1ccccn1 [DEXCHLORPHENIRAMINE] | Not Active | Not Active | Not Active | Not Active | Not Active |  | 
18 | C[C@H]1O[C@@H](n2cc(F)c(=O)[nH]c2=O)[C@H](O)[C@@H]1O [DOXIFLURIDINE] | Not Active | Not Active | Not Active | Not Active | Not Active |  | 
19 | Cn1c(=O)c2c(ncn2CC(O)CO)n(C)c1=O (stereo unspecified) [DYPHYLLINE] | Not Active | Not Active | Not Active | Not Active | Not Active |  | 
20 | CC[C@H]1CN2CCc3cc(OC)c(OC)cc3[C@@H]2C[C@@H]1C[C@H]1NCCc2cc(OC)c(OC)cc21 [EMETINE] | Not Active | Not Active | Not Active | Not Active | Not Active |  | 
21 | COC(=O)CCc1ccc(OCC(O)CNC(C)C)cc1 (stereo unspecified) [ESMOLOL] | Not Active | Not Active | Not Active | Not Active | Not Active |  | 
22 | CCC1(C)CC(=O)NC1=O (stereo unspecified) [ETHOSUXIMIDE] | Not Active | Not Active | Not Active | Not Active | Not Active |  | 
23 | C#C[C@]1(OC(C)=O)CC[C@H]2[C@@H]3CCC4=C[C@@H](OC(C)=O)CC[C@@H]4[C@H]3CC[C@@]21C [ETHYNODIOL DIACETATE] | Not Active | Not Active | Not Active | Not Active | Not Active |  | 
24 | COc1cc([C@@H]2c3cc4c(cc3[C@@H](O[C@@H]3O[C@@H]5CO[C@@H](C)O[C@H]5[C@H](O)[C@H]3O)[C@H]3COC(=O)[C@H]23)OCO4)cc(OC)c1O [ETOPOSIDE] | Not Active | Not Active | Not Active | Not Active | Not Active |  | 
25 | C=CCc1ccc(O)c(OC)c1 [EUGENOL] | Not Active | Not Active | Not Active | Not Active | Not Active |  | 
26 | CC(C(=O)O)c1cccc(Oc2ccccc2)c1 (stereo unspecified) [FENOPROFEN] | Not Active | Not Active | Not Active | Not Active | Not Active |  | 
27 | CC(C)(C)NC(=O)[C@H]1CC[C@H]2[C@@H]3CC[C@H]4NC(=O)C=C[C@]4(C)[C@H]3CC[C@]12C [FINASTERIDE] | Not Active | Not Active | Not Active | Not Active | Not Active |  | 
28 | Nc1ccn([C@@H]2O[C@H](CO)[C@@H](O)C2(F)F)c(=O)n1 [GEMCITABINE] | Not Active | Not Active | Not Active | Not Active | Not Active |  | 
29 | N=C(N)NC(=O)Cc1c(Cl)cccc1Cl [GUANFACINE] | Not Active | Not Active | Not Active | Not Active | Not Active |  | 
30 | NNc1nncc2ccccc12 [HYDRALAZINE] | Not Active | Not Active | Not Active | Not Active | Not Active |  | 
31 | COc1ccc2[nH]cc(CCNC(C)=O)c2c1 [MELATONIN] | Not Active | Not Active | Not Active | Not Active | Not Active |  | 
32 | NC(=O)C[S+]([O-])C(c1ccccc1)c1ccccc1 (stereo unspecified) [MODAFINIL] | Not Active | Not Active | Not Active | Not Active | Not Active |  | 
